Reference: US11840686B2, “Modulation of prekallikrein (PKK) expression” (Ionis Pharmaceuticals, Inc., priority 2013, dated 2023)
Strand notation (5' to 3'): a small letter for the sugar, then the base; units joined by * are phosphorothioate-linked, units joined directly phosphodiester-linked; [ ] holds rarer units or linkages, { } end groups; capitals alone tell only the bases. e = 2'-O-(2-methoxyethyl) (MOE); k = constrained ethyl (cEt); [5mC] = 5-methylcytosine; d = 2'-deoxy (DNA)

Test system: human PKK mRNA
Experiment: Antisense inhibition of human PKK mRNA in HepaRG cells, 1,000 nM, MOE/deoxy/cEt oligonucleotides (Example 3)
Format: cell-based
Protocol: Additional antisense oligonucleotides were designed targeting a PKK nucleic acid and were tested for their effects on PKK mRNA in vitro.
The chimeric antisense oligonucleotides in the tables below were designed as deoxy, MOE and cEt gapmers. The gapmers are 16 nucleosides in length wherein the nucleoside have either a MOE sugar modification, a cEt sugar modification, or a deoxy modification. The ‘Chemistry’ column describes the sugar modifications of each oligonucleotide. ‘k’ indicates an cEt sugar modification; the number indicates the number of deoxynucleosides; otherwise, indicates a deoxynucleoside; and ‘e’ indicates a 2′-O-methoxyethyl modification. The internucleoside linkages throughout each gapmer are phosphorothioate linkages. All cytosine residues throughout each oligonucleotide are 5-methylcytosines. “Start site” indicates the 5′-most nucleoside to which the gapmer is targeted in the human gene sequence. “Stop site” indicates the 3′-most nucleoside to which the gapmer is targeted in the human gene sequence.
Cultured HepaRG™ cells at a density of 20,000 cells per well were transfected using electroporation with 1,000 nM antisense oligonucleotide. After a treatment period of approximately 24 hours, RNA was isolated from the cells and PKK mRNA levels were measured by quantitative real-time PCR. Human primer probe set RTS3454 was used to measure mRNA levels. ISIS 531231 was also included in this assay. PKK mRNA levels were adjusted according to total RNA content, as measured by RIBOGREEN®. The antisense oligonucleotides were tested in a series of experiments that had similar culture conditions. Results are presented as percent inhibition of PKK, relative to untreated control cells.

[1] = Table 20, HepaRG cells, electroporation with 1,000 nM antisense oligonucleotide, approximately 24 hours, PKK mRNA by RT-PCR (RTS3454), relative to untreated control cells
[2] = Table 22 experiment, HepaRG cells, electroporation with 1,000 nM antisense oligonucleotide, approx. 24 hours, PKK mRNA by RT-PCR (RTS3454), relative to untreated control cells
[3] = Table 27, HepaRG cells, 1,000 nM antisense oligonucleotide, human PKK mRNA
[4] = HepaRG cells, 1,000 nM antisense oligonucleotide, Table 29
[5] = HepaRG cells, electroporation with 1,000 nM antisense oligonucleotide, approx. 24 hours, PKK mRNA by RT-PCR (RTS3454), relative to untreated control cells, Table 26 experiment
[6] = Table 21 experiment, HepaRG cells, electroporation with 1,000 nM antisense oligonucleotide, approx. 24 hours, PKK mRNA by RT-PCR (RTS3454), relative to untreated control cells
[7] = PKK mRNA, HepaRG cells, 1,000 nM antisense oligonucleotide, Table 31
[8] = HepaRG cells, electroporation with 1,000 nM antisense oligonucleotide, approximately 24 hours, primer probe set RTS3454, relative to untreated control cells, experiment of Table 23
[9] = Table 19, HepaRG cells, electroporation with 1,000 nM antisense oligonucleotide, approximately 24 hours, PKK mRNA by RT-PCR (RTS3454), relative to untreated control cells
[10] = HepaRG cells, electroporation with 1,000 nM antisense oligonucleotide, approx. 24 hours, PKK mRNA by RT-PCR (RTS3454), relative to untreated control cells, Table 25 experiment
[11] = HepaRG cells, electroporation with 1,000 nM antisense oligonucleotide, approximately 24 hours, primer probe set RTS3454, relative to untreated control cells, experiment of Table 24

## 547852 (antisense eA*eT*kA*dA*dA*dT*dG*dT*d[5mC]*dT*d[5mC]*dG*dA*kT*kG*eG) [compound 547852]
[1]
  % inhibition: 67%
[2]
  % inhibition: 66%

## 548309 (eA*eG*kA*d[5mC]*dA*dG*dT*dT*dG*dG*dT*dG*dG*kT*kT*eT; antisense) [compound 548309]
[3]
  % inhibition: 41%

## 548549 (antisense eT*eG*kT*dG*d[5mC]*dA*dA*dT*d[5mC]*dA*dG*dG*dT*kG*kG*eA) [compound 548549]
[4]
  % inhibition: 56%

## 548244 (e[5mC]*eA*kT*dG*d[5mC]*dA*dT*dA*d[5mC]*dT*d[5mC]*dG*d[5mC]*k[5mC]*kT*eT; antisense) [compound 548244]
[5]
  % inhibition: 51%

## 547828 (e[5mC]*e[5mC]*kT*dG*dT*dT*d[5mC]*dG*dA*dT*dG*dT*dA*k[5mC]*kT*eT; antisense) [compound 547828]
[6]
  % inhibition: 63%

## 548342 (antisense eG*eG*kA*dA*dG*dA*d[5mC]*dT*dT*d[5mC]*d[5mC]*d[5mC]*dT*k[5mC]*kT*eG) [compound 548342]
[3]
  % inhibition: 0%

## 548642 (antisense eG*e[5mC]*kG*dG*d[5mC]*dA*dG*dT*dA*dG*dT*dG*dA*kA*kT*e[5mC]) [compound 548642]
[7]
  % inhibition: 23%

## 547913 (eG*e[5mC]*kA*dA*d[5mC]*dA*dT*d[5mC]*d[5mC]*dA*d[5mC]*dA*dT*k[5mC]*kT*eG; antisense) [compound 547913]
[1]
  % inhibition: 71%
[2]
  % inhibition: 61%

## 548554 (antisense eG*eT*kG*d[5mC]*dT*dG*d[5mC]*dA*dT*dT*dG*d[5mC]*dA*kT*kG*eA) [compound 548554]
[4]
  % inhibition: 42%

## 547966 (antisense eA*eG*kG*dG*dT*dT*d[5mC]*dA*dG*dG*dT*dA*dA*kA*kG*eT) [compound 547966]
[8]
  % inhibition: 13%

## 547893 (eG*e[5mC]*kA*dA*dT*dT*dG*dT*dT*d[5mC]*d[5mC]*dG*dG*kT*kA*e[5mC]; antisense) [compound 547893]
[1]
  % inhibition: 81%
[2]
  % inhibition: 80%

## 548079 (e[5mC]*e[5mC]*kT*dT*d[5mC]*dT*dT*dT*dA*dT*dA*dG*d[5mC]*k[5mC]*kA*eG; antisense) [compound 548079]
[9]
  % inhibition: 39%

## 547790 (antisense eT*eG*kA*dA*dA*dT*dA*dA*dG*dT*dT*dG*d[5mC]*kT*kT*eG) [compound 547790]
[6]
  % inhibition: 23%

## 548634 (antisense eG*e[5mC]*k[5mC]*dT*dT*dA*dT*dT*d[5mC]*dT*dG*dT*dG*k[5mC]*kA*eA) [compound 548634]
[7]
  % inhibition: 0%

## 547805 (eG*eG*kG*dT*dG*dT*dA*d[5mC]*dA*dT*dG*dG*dA*kA*kG*e[5mC]; antisense) [compound 547805]
[6]
  % inhibition: 54%

## 548145 (eA*eT*kG*d[5mC]*dA*dA*dA*dG*dA*dA*dG*dA*dT*kG*k[5mC]*e[5mC]; antisense) [compound 548145]
[9]
  % inhibition: 63%

## 548268 (antisense eT*eG*kT*dG*dT*d[5mC]*dT*dA*dG*dG*dG*dA*dG*kT*kT*eG) [compound 548268]
[5]
  % inhibition: 52%

## 547753 (eA*eT*kG*dA*dA*d[5mC]*dG*dG*dT*d[5mC]*dT*dT*d[5mC]*kA*kA*eG; antisense) [compound 547753]
[6]
  % inhibition: 3%

## 548470 (eG*eG*kT*dG*dG*dA*dA*dT*dG*dT*d[5mC]*dA*dT*kG*kG*e[5mC]; antisense) [compound 548470]
Table 28, HepaRG cells, 1,000 nM antisense oligonucleotide, human PKK mRNA
  % inhibition: 56%

## 548288 (eG*eA*kA*dT*dA*dG*d[5mC]*dA*dA*dG*d[5mC]*dT*d[5mC]*k[5mC]*kA*eA; antisense) [compound 548288]
[5]
  % inhibition: 64%

## 548186 (e[5mC]*eA*kA*d[5mC]*dA*d[5mC]*dA*d[5mC]*dA*dG*dT*d[5mC]*dA*kT*kG*eG; antisense) [compound 548186]
[10]
  % inhibition: 0%

## 548200 (e[5mC]*eT*kA*dA*dT*dG*dT*dG*dG*d[5mC]*dA*d[5mC]*dT*kG*k[5mC]*eA; antisense) [compound 548200]
[10]
  % inhibition: 19%

## 548326 (eT*e[5mC]*k[5mC]*dT*dG*dT*dG*dA*d[5mC]*dA*dG*dA*dA*k[5mC]*k[5mC]*eA; antisense) [compound 548326]
[3]
  % inhibition: 27%

## 548105 (antisense e[5mC]*eA*kT*dG*dT*dA*d[5mC]*dT*d[5mC]*dA*dG*d[5mC]*dG*kA*k[5mC]*eT) [compound 548105]
[9]
  % inhibition: 49%

## 548455 (e[5mC]*eA*k[5mC]*d[5mC]*dG*dT*dA*d[5mC]*dT*dA*dG*dT*dT*kT*k[5mC]*e[5mC]; antisense) [compound 548455]
Table 30, human PKK mRNA, HepaRG cells, 1,000 nM antisense oligonucleotide
  % inhibition: 64%

## 547836 (eT*e[5mC]*k[5mC]*dA*dG*dA*dA*dA*d[5mC]*dT*dG*d[5mC]*dA*k[5mC]*k[5mC]*eT; antisense) [compound 547836]
[6]
  % inhibition: 50%

## 548588 (eA*eG*k[5mC]*dT*d[5mC]*dA*d[5mC]*dA*d[5mC]*d[5mC]*d[5mC]*dA*dA*kA*kA*eA; antisense) [compound 548588]
[4]
  % inhibition: 10%

## 547792 (antisense eT*e[5mC]*k[5mC]*dA*d[5mC]*dA*dG*dG*dA*dA*dA*d[5mC]*dT*kG*kT*eA) [compound 547792]
[6]
  % inhibition: 31%

## 548359 (antisense e[5mC]*e[5mC]*kT*dA*dG*dT*d[5mC]*d[5mC]*dT*d[5mC]*dA*dA*dG*kT*kT*eT) [compound 548359]
[3]
  % inhibition: 0%

## 548618 (antisense eG*eT*kT*dG*dG*dT*dG*dG*d[5mC]*dG*dG*dG*dA*kT*k[5mC]*eG) [compound 548618]
[7]
  % inhibition: 18%

## 548031 (eG*eA*kT*dG*d[5mC]*dG*d[5mC]*d[5mC]*dA*dA*dA*d[5mC]*dA*kT*k[5mC]*e[5mC]; antisense) [compound 548031]
[11]
  % inhibition: 73%

## 548117 (antisense e[5mC]*eT*k[5mC]*dA*dT*dG*d[5mC]*dT*dG*dG*dT*dG*dA*k[5mC]*kT*eG) [compound 548117]
[9]
  % inhibition: 73%

## 548347 (antisense eG*e[5mC]*kT*dG*dT*dT*d[5mC]*dT*dA*dA*dG*d[5mC]*dG*kA*kG*eA) [compound 548347]
[3]
  % inhibition: 31%

## 548296 (eA*e[5mC]*k[5mC]*dA*dA*d[5mC]*dA*dA*d[5mC]*dT*d[5mC]*dA*dG*kG*k[5mC]*e[5mC]; antisense) [compound 548296]
[5]
  % inhibition: 34%

## 547814 (eG*eG*kG*dT*dG*dG*dA*dA*dT*dG*dT*dG*d[5mC]*kA*k[5mC]*e[5mC]; antisense) [compound 547814]
[6]
  % inhibition: 60%

## 548019 (e[5mC]*e[5mC]*k[5mC]*d[5mC]*dA*dA*dG*dA*dA*dG*dA*dG*dT*kT*kT*eG; antisense) [compound 548019]
[11]
  % inhibition: 24%

## 547983 (antisense eG*eA*kA*dT*d[5mC]*dA*dT*d[5mC]*dT*dT*dT*dG*dT*kG*k[5mC]*eA) [compound 547983]
[8]
  % inhibition: 56%
